In PubChem BioAssay AID248 (DTP/NCI, 2004):
Values joined by “and” are separate entries in the source; they are usually repeats but may differ in a detail not shown here. Equal values may be shown once. Toxic doses and inconclusive results are not listed. Rule as the data show it: active = T/C of 150% or more; inactive = T/C below 125%.

Test system: L1210 leukemia ip in BDF1 mice, survival T/C
Test: NCI In Vivo Anticancer Drug Screen. Data for tumor model L1210 Leukemia (intraperitoneal) in B6D2F1 (BDF1) mice
Conditions: endpoint: mean survival time, higher = longer survival
How it was run: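 Transplantable tumor model; survival measured in treated vs vehicle control mice. Value = treated/control.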

[1] = dose: 100.0 mg/kg/injection, schedule: Q04DX003 (ip), vehicle: saline with Tween-80
[2] = dose: 200.0 mg/kg/injection, schedule: Q04DX003 (ip), vehicle: saline with Tween-80
[3] = dose: 400.0 mg/kg/injection, schedule: Q04DX003 (ip), vehicle: saline with Tween-80
[4] = dose: 100.0 mg/kg/injection, schedule: Q01DX001 (ip), vehicle: carboxymethylcellulose (CMC)
[5] = dose: 200.0 mg/kg/injection, schedule: Q01DX001 (ip), vehicle: carboxymethylcellulose (CMC)
[6] = dose: 400.0 mg/kg/injection, schedule: Q01DX001 (ip), vehicle: carboxymethylcellulose (CMC)
[7] = dose: 50.0 mg/kg/injection, schedule: Q01DX009 (ip), vehicle: saline with Tween-80
[8] = dose: 100.0 mg/kg/injection, schedule: Q01DX009 (ip), vehicle: saline with Tween-80
[9] = dose: 100.0 mg/kg/injection, schedule: Q04DX002 (ip), vehicle: saline with Tween-80
[10] = dose: 200.0 mg/kg/injection, schedule: Q01DX009 (ip), vehicle: saline with Tween-80
[11] = dose: 200.0 mg/kg/injection, schedule: Q04DX002 (ip), vehicle: saline with Tween-80
[12] = dose: 400.0 mg/kg/injection, schedule: Q04DX002 (ip), vehicle: saline with Tween-80
[13] = dose: 12.5 mg/kg/injection, schedule: Q01DX009 (ip), vehicle: saline sonified
[14] = dose: 100.0 mg/kg/injection, schedule: Q01DX001 (ip), vehicle: Klucel (hydroxypropylcellulose) (HPC)
[15] = dose: 200.0 mg/kg/injection, schedule: Q01DX001 (ip), vehicle: Klucel (hydroxypropylcellulose) (HPC)
[16] = dose: 400.0 mg/kg/injection, schedule: Q01DX001 (ip), vehicle: Klucel (hydroxypropylcellulose) (HPC)
[17] = dose: 25.0 mg/kg/injection, schedule: Q04DX002 (ip), vehicle: saline with Tween-80
[18] = dose: 50.0 mg/kg/injection, schedule: Q04DX002 (ip), vehicle: saline with Tween-80
[19] = dose: 100.0 mg/kg/injection, schedule: Q04DX002 (ip), vehicle: Klucel (hydroxypropylcellulose) (HPC)
[20] = dose: 200.0 mg/kg/injection, schedule: Q04DX002 (ip), vehicle: Klucel (hydroxypropylcellulose) (HPC)
[21] = dose: 400.0 mg/kg/injection, schedule: Q04DX002 (ip), vehicle: Klucel (hydroxypropylcellulose) (HPC)

Measured: T/C

COc1ccc(/C(=N\N=C(N)N)C2CC2)cc1
inactive: dose: 120.0 mg/kg/injection, schedule: Q01DX Z (oral), vehicle: carboxymethylcellulose (CMC) 90 % of control

Cc1ccc(NCC(O)CN2CCCCC2)cc1 (stereo not given)
inactive: dose: 10.0 mg/kg/injection, schedule: Q01DX009 (ip), vehicle: other 104 % of control | dose: 20.0 mg/kg/injection, schedule: Q01DX009 (ip), vehicle: other 98 % of control | dose: 40.0 mg/kg/injection, schedule: Q01DX009 (ip), vehicle: other 92 % of control

CC1Cc2c(cccc2[N+](=O)[O-])C1=O (stereo not given)
inactive: [1] 101 % of control | [2] 96 % of control | [3] 107 % of control

N#CCCn1ccc2ccccc21
inactive: dose: 100.0 mg/kg/injection, schedule: Q04DX003 (ip), vehicle: other 96 % of control | dose: 200.0 mg/kg/injection, schedule: Q04DX003 (ip), vehicle: other 104 % of control | dose: 400.0 mg/kg/injection, schedule: Q04DX003 (ip), vehicle: other 106 % of control

c1cc[n+]2c(c1)-c1cccc[n+]1CCC2
inactive: [4] 94 % of control | [5] 101 % of control | [6] 92 % of control

NCCCn1cnc2c(N)ncnc21
inactive: dose: 100.0 mg/kg/injection, schedule: Q01DX009 (ip), vehicle: saline 94 % of control | dose: 100.0 mg/kg/injection, schedule: Q04DX003 (ip), vehicle: saline 91 % of control | dose: 200.0 mg/kg/injection, schedule: Q04DX003 (ip), vehicle: saline 98 % of control

O=C(Nc1cccc(C(F)(F)F)c1)c1cccc(C(=O)Nc2cccc(C(F)(F)F)c2)c1
inactive: dose: 12.5 mg/kg/injection, schedule: Q04DX003 (ip), vehicle: saline with Tween-80 96 % of control | dose: 25.0 mg/kg/injection, schedule: Q04DX003 (ip), vehicle: saline with Tween-80 91 % of control | dose: 50.0 mg/kg/injection, schedule: Q04DX003 (ip), vehicle: saline with Tween-80 90 % of control

CC(c1ccccc1)N1C(=O)CSC1=S (stereo not given)
inactive: [7] 96 % of control and 101 % of control | dose: 100.0 mg/kg/injection, schedule: Q01DX001 (ip), vehicle: saline with Tween-80 100 % of control | [8] 99 % of control and 107 % of control | [9] 96 % of control and 98 % of control | [1] 104 % of control | dose: 200.0 mg/kg/injection, schedule: Q01DX001 (ip), vehicle: saline with Tween-80 100 % of control | [10] 96 % of control and 91 % of control | [11] 91 % of control | [2] 102 % of control | dose: 400.0 mg/kg/injection, schedule: Q01DX001 (ip), vehicle: saline with Tween-80 92 % of control | [12] 90 % of control | [3] 90 % of control

CC1(C)N=C(N)N=C(N)N1c1cccc(CCCCc2ccc(Cl)c(S(=O)(=O)F)c2)c1
inactive: dose: 7.0 mg/kg/injection, schedule: Q04DX003 (ip), vehicle: saline 97 % of control | [13] 91 % of control | dose: 12.5 mg/kg/injection, schedule: Q04DX003 (ip), vehicle: saline sonified 100 % of control | dose: 14.0 mg/kg/injection, schedule: Q04DX003 (ip), vehicle: saline 95 % of control | dose: 25.0 mg/kg/injection, schedule: Q04DX003 (ip), vehicle: saline sonified 102 % of control | dose: 28.0 mg/kg/injection, schedule: Q04DX003 (ip), vehicle: saline 88 % of control | dose: 50.0 mg/kg/injection, schedule: Q04DX003 (ip), vehicle: saline sonified 96 % of control | dose: 56.0 mg/kg/injection, schedule: Q04DX003 (ip), vehicle: saline 93 % of control

CCS(=O)(=O)N1CCCCC1C (stereo not given)
inactive: [9] 93 % of control | [11] 99 % of control | [12] 96 % of control

OCCN(CCO)c1cccc(C(F)(F)F)c1
inactive: dose: 50.0 mg/kg/injection, schedule: Q01DX001 (ip), vehicle: saline 96 % of control | dose: 100.0 mg/kg/injection, schedule: Q01DX001 (ip), vehicle: saline 100 % of control | dose: 200.0 mg/kg/injection, schedule: Q01DX001 (ip), vehicle: saline 106 % of control | dose: 400.0 mg/kg/injection, schedule: Q01DX001 (ip), vehicle: saline 96 % of control

Cc1cccc(NC(=O)C2CCC(C)(C(=O)O)C2(C)C)c1 (stereo not given)
inactive: [7] 101 % of control | [8] 101 % of control | [10] 96 % of control

CSc1nc(Cl)nc(C(Cl)(Cl)Cl)c1Cl
inactive: [14] 89 % of control | [15] 103 % of control | [16] 89 % of control

CC(C)(C)OC(=O)C(C=O)N1C(=O)c2ccccc2C1=O (stereo not given)
inactive: [14] 94 % of control | dose: 100.0 mg/kg/injection, schedule: Q01DX009 (ip), vehicle: saline sonified 100 % of control | [15] 92 % of control | dose: 200.0 mg/kg/injection, schedule: Q01DX009 (ip), vehicle: saline sonified 94 % of control | [16] 100 % of control | dose: 400.0 mg/kg/injection, schedule: Q01DX009 (ip), vehicle: saline sonified 98 % of control

CN(C)C(=S)Oc1ccc(S(=O)(=O)F)c(Cl)c1Cl
inactive: [17] 92 % of control | [18] 92 % of control | [9] 86 % of control

C/C=C/CCCCC
inactive: [7] 102 % of control | [8] 118 % of control | [10] 94 % of control

CCOP(=S)(NCCOC)OCC
inactive: [8] 97 % of control | [10] 94 % of control | dose: 400.0 mg/kg/injection, schedule: Q01DX009 (ip), vehicle: saline with Tween-80 95 % of control

CCOC(=O)C/C(C)=N\NC(N)=O
inactive: [19] 104 % of control | [20] 101 % of control | [21] 97 % of control

O=C(OC1CC2CC1C1CCCC21)c1ccc([N+](=O)[O-])cc1 (stereo not given)
inactive: dose: 50.0 mg/kg/injection, schedule: Q01DX001 (ip), vehicle: carboxymethylcellulose (CMC) 90 % of control | [4] 87 % of control | dose: 100.0 mg/kg/injection, schedule: Q01DX009 (ip), vehicle: Klucel (hydroxypropylcellulose) (HPC) 104 % of control | [5] 92 % of control | dose: 200.0 mg/kg/injection, schedule: Q01DX009 (ip), vehicle: Klucel (hydroxypropylcellulose) (HPC) 100 % of control | [6] 95 % of control | dose: 400.0 mg/kg/injection, schedule: Q01DX009 (ip), vehicle: Klucel (hydroxypropylcellulose) (HPC) 97 % of control

CC(=O)C1CCCC(=O)/C=C/C(=O)O1 (stereo not given)
inactive: [19] 92 % of control | [20] 100 % of control

CC1(C)C(N2CCCCC2)CS1(=O)=O (stereo not given)
inactive: [13] 103 % of control | dose: 25.0 mg/kg/injection, schedule: Q01DX009 (ip), vehicle: saline sonified 98 % of control | dose: 50.0 mg/kg/injection, schedule: Q01DX009 (ip), vehicle: saline sonified 94 % of control

c1ccc(C2OCCCOC2c2ccccc2)cc1 (stereo not given)
inactive: [4] 97 % of control | [5] 97 % of control | [6] 103 % of control

O=C1OC(c2cccc(Cl)c2)=N/C1=C\c1cc(Br)ccc1O
inactive: [9] 89 % of control | [11] 96 % of control | [12] 89 % of control

COc1ccc(-c2cc3c(OC)ccc(OC)c3[nH]2)cc1
inactive: [19] 93 % of control | [20] 102 % of control | [21] 93 % of control

CC(=O)Nc1ccc2ccc3ccc4ccccc4c3c2c1
inactive: dose: 3.12 mg/kg/injection, schedule: Q04DX002 (ip), vehicle: saline with Tween-80 111 % of control | dose: 6.25 mg/kg/injection, schedule: Q04DX002 (ip), vehicle: saline with Tween-80 111 % of control | dose: 12.5 mg/kg/injection, schedule: Q04DX002 (ip), vehicle: saline with Tween-80 108 % of control | [17] 103 % of control | [18] 102 % of control

NC(N)=N/N=C(/C(=N\N=C(N)N)c1ccco1)c1ccco1
inactive: dose: 8.0 mg/kg/injection, schedule: Q01DX Z (oral), vehicle: methylcellulose (MC) 89 % of control | dose: 15.0 mg/kg/injection, schedule: Q01DX Z (ip), vehicle: methylcellulose (MC) 100 % of control | dose: 15.0 mg/kg/injection, schedule: Q01DX Z (oral), vehicle: methylcellulose (MC) 96 % of control | dose: 30.0 mg/kg/injection, schedule: Q01DX Z (oral), vehicle: methylcellulose (MC) 105 % of control
